How the values were obtained:
Assay type in all cases: in vivo, mouse
[1] = test system: dystrophin in muscles of mdx mice; assay: Dystrophin expression after systemic (intraperitoneal) administration to mdx mice; details: 300 mg/kg, three weeks
Procedure: In these studies, animals were injected intraperitoneally with RTC#13 at a concentration of 300 mg/kg for three weeks with a wash out period of 5 days between each treatment. Mice were allowed to recover for three weeks and muscles were analyzed for dystrophin expression. […] Expression varied between different muscle groups. Dystrophin was prominent in diaphragm and heart, two of the tissues most affected in DMD patients.
The dystrophin protein produced in muscle fibers was functionally active and was able to restore β-dystroglycan expression, a major component of the dystrophin glycoprotein complex (DGC) that is missing in mdx mice and in human patients as the result of the lack of dystrophin expression.

mdx mice [2] = assay: Forelimbs grip test and wire test in mdx mice
Procedure: Mdx mice were injected intraperitoneally with RTC#13 or vehicle only for three weeks and analyzed two weeks later. In FIG. 19a, muscle strength in treated and untreated mice was determined using the grip test. The top three of five consecutive pulls were averaged to calculate the absolute strength which was then divided by the body weight (BW) in grams. Results were compared to those obtained in wild type (C57) mice. […] (*: p≦0.01; **: p≦0.001). […] (*: p≦0.005; **: p≦0.001).

mdx mice [3] = assay: Serum creatine kinase (CK) in treated mdx mice; details: treated mdx mice vs controls

N=C1NC(=O)C(=Cc2ccc(-c3ccccc3[N+](=O)[O-])o2)S1 [RTC13, 2-imino-5-{[5-(2-nitrophenyl)-2-furyl]methylene}-1,3-thiazolidin-4-one]
full-length dystrophin by Western blot after systemic administration [1]: presence of full-length dystrophin in all tissues | wire test (mdx mice [2]; compared with DMSO only): able to hold on a wire for much longer | muscle strength, grip test (mdx mice [2]; intraperitoneal for three weeks, analyzed two weeks later): significant recovery in muscle strength | serum creatine kinase (CK) levels (mdx mice [3]): significant difference in the CK levels

From patent US9255088B2, “Premature-termination-codons readthrough compounds” (The Regents of the University of California, priority 2010, dated 2016)
